Assay results published in patent publication US20260364184A1, “COMPOUND BASED ON OXOISOINDOLINYL-SUBSTITUTED TETRAHYDROPYRIMIDINE-DIONE AND USE THEREOF” (GLUETACS THERAPEUTICS (SHANGHAI) CO., LTD., priority 2023, published 2026).

Experiments:
[1] = tested on: Human Acute T Lymphoblastic Leukemia Cells (Molt-4); experiment: Inhibition of Molt-4 cell proliferation (CellTiter luminescent viability); format: cell-based; details: for inhibition at 0.01 µM / inhibition at 0.5 µM: Homo sapiens, MOLT-4, 96 h, Table IH3, BCL-2 inhibitor-based, 96 hours; for inhibition at 0.01 µM: Molt-4, 10 nM, read-out: Inhibition Rate at 10 nM (%); for inhibition at 0.5 µM: Molt-4, 500 nM, read-out: Inhibition Rate at 500 nM (%); for IC50: Table IE1, CDK4/6 inhibitor-based, Molt-4, 96 hours, read-out: Inhibitory activity (IC50, nM) on tumor cell proliferation, Molt-4
[2] = tested on: Human acute lymphocytic leukemia T lymphocytes cell line (CCRF-CEM); experiment: Inhibition of CCRF-CEM cell proliferation (CellTiter luminescent viability); format: cell-based; details: for inhibition at 0.01 µM / inhibition at 0.5 µM: Homo sapiens, 96 h, Table IH2, BCL-2 inhibitor-based; for inhibition at 0.01 µM: 10 nM, read-out: Inhibition Rate at 10 nM (%); for inhibition at 0.5 µM: 500 nM, read-out: Inhibition Rate at 500 nM (%); for IC50: Table IE1, CDK4/6 inhibitor-based, 96 hours, read-out: Inhibitory activity (IC50, nM) on tumor cell proliferation, CCRF-CEM
[3] = tested on: Human prostate cancer cell line (NCI-H358); experiment: Inhibition of NCI-H358 cell proliferation (CellTiter luminescent viability); details: Table IH1, BCL-2 inhibitor-based, 96 hours; for inhibition at 0.01 µM: NCI-H358, 10 nM, read-out: Inhibition Rate at 10 nM (%); for inhibition at 0.5 µM: NCI-H358, 500 nM, read-out: Inhibition Rate at 500 nM (%)
Procedure: (§1) The tumor cells used herein were cultured in a cell culture medium listed in table 3 at 37 °C in an incubator with 5% CO2. Prior to experimentation, all cell lines used were correctly identified by STR profiling, and tested negative for mycoplasma contamination using a mycoplasma detection kit through routine screenings.
(§2) The IC50 values of the compounds of the present disclosure (including the compounds in Table 1, Table 2, and Examples 1-468) were determined using the CellTiter-Meiluncell Luminescent Cell Viability Assay Kit from Dalian Meilun Biotech Co., Ltd. The detailed procedure is as follows: Tumor cells were seeded in 96-well cell culture plates at the densities specified in Table 4. On the following day, the test compounds of the present disclosure were subjected to serial dilution. The dilution can be performed according to one of the following two methods: • (1) The first dilution method: The test compounds of the present disclosure (including the compounds in Table 1, Table 2, and Examples 1-468) were subjected to 5-fold serial dilutions starting from a highest concentration of 2000 μM, resulting in a total of 9 concentrations from high to low (2000, 400, 80, 16, 3.2, 0.64, 0.128, 0.0256, 0.00512 μM). Subsequently, 0.5 μL of the test compound dilution was transferred into the 96-well plate containing the cells, with each well containing 100 μL of cell culture medium. […] Into the 96-well plate, the diluted test compounds and corresponding detection reagents were added, resulting in final test compound concentrations of 500 nM and 10 nM, respectively. The experimental procedure is described below using the diluted 2 μM test compound as an example.
(§3) 0.5 μL of the aforementioned diluted compound of the present disclosure (including the compounds in Table 1, Table 2, and Examples 1-468) was added to the seeded cells in 100 μL of medium, yielding a final test compound concentration of 10 nM. After the cells were treated with the compounds of the present disclosure for a specified period, the cell viability assay reagent was added to the culture medium according to the kit's instructions to determine cell viability. […] All controls were treated using the same procedure as the compounds of the present disclosure. The growth inhibition curves for the compounds of the present disclosure were plotted using Prism GraphPad software, and the IC50 values were calculated therefrom.

BCL-2 = target: T1, BCL-2 (Homo sapiens, UniProt P10415); experiment: Western blot degradation of BCL-2; format: cell-based; details: Molt-4 Cell; 24 hours
T1 construct: expression of target proteins in cells; endogenous in cells
Procedure: Conventional Western blot assay was performed to evaluate the effects of the compounds of the present disclosure on the expression of target proteins in cells.
(1) Cell Seeding and Protein Harvesting: The selected cells were processed according to the cell seeding procedure and protein harvesting procedure in Table II-2.
(2) To the collected supernatant, 5×SDS sample loading buffer was added, followed by denaturation at 95 °C for 5 minutes. The denatured samples were then separated by SDS-PAGE electrophoresis on a polyacrylamide gel. Proteins were transferred to a nitrocellulose membrane (0.45 μm NC membrane), blocked with blocking buffer at room temperature for 1 hour, and subjected to antibody incubation and development procedures according to the antibody manufacturer's instructions (Cell Signaling Technology).
Half-Maximal Degradation Concentration value (the drug concentration required for degrading proteins by 50%, abbreviated as DC50) reads method: comparing the grayscale values of Western blot bands from drug-treated samples with those from blank DMSO-treated controls, and identifying the drug concentration range at which the grayscale value is half that of the DMSO-treated control bands.
DC50 values can be calculated using ImageJ software to measure grayscale values of Western blot bands from drug-treated samples. The concentration-response curve is fitted to estimate the drug concentration corresponding to half the grayscale value.
Target protein remaining (%) refers to the percentage of target protein remaining in cells after treatment with protein degrader compounds.
Calculation method for target protein remaining (%): Use ImageJ software to measure grayscale values of Western blot bands from drug (protein degrader)-treated samples. The grayscale value of drug-treated bands is divided by that of internal control protein bands, and the resulting quotient is normalized to obtain the relative percentage of remaining target protein after protein degrader treatment.
Target protein degradation rate (%)=1−target protein remaining (%).

[4] = tested on: Human large cell immunoblastic lymphoma cell line SR; experiment: Inhibition of SR cell proliferation (CellTiter luminescent viability); format: cell-based; details: Table IE1, CDK4/6 inhibitor-based, 96 hours, read-out: Inhibitory activity (IC50, nM) on tumor cell proliferation, SR
Procedure, shortened: (§4)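 Cells are seeded in 96-well plates, cultured at 37 °C, 5% CO2, and treated next day with 5-fold serial compound dilutions (stock series from 2000 μM; 0.5 μL into 100 μL medium). Viability is read by CellTiter-Meiluncell luminescence after the set exposure, and IC50 is taken from growth-inhibition curves.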

[5] = tested on: Human breast cancer cell line MCF-7; experiment: Inhibition of MCF-7 cell proliferation (CellTiter luminescent viability); details: Table IE1, CDK4/6 inhibitor-based; MCF-7, 96 hours; read-out: Inhibitory activity (IC50, nM) on tumor cell proliferation, MCF-7
Procedure: as §1, §2, §3

[6] = tested on: Human myeloid monocytic leukemia cell line (MV-4-11); experiment: Inhibition of MV-4-11 cell proliferation (CellTiter luminescent viability); format: cell-based; details: for IC50: Table IE1, CDK4/6 inhibitor-based, MV-4-11, 96 hours, read-out: Inhibitory activity (IC50, nM) on tumor cell proliferation, MV-4-11
Procedure, shortened: as §4

[7] = tested on: Human lung cancer cell line (H292); experiment: Inhibition of H292 cell proliferation (CellTiter luminescent viability); format: cell-based; details: NCI-H292, Table IE2, CDK4/6 inhibitor-based, 96 hours

T1 sequence (P10415 whole entry): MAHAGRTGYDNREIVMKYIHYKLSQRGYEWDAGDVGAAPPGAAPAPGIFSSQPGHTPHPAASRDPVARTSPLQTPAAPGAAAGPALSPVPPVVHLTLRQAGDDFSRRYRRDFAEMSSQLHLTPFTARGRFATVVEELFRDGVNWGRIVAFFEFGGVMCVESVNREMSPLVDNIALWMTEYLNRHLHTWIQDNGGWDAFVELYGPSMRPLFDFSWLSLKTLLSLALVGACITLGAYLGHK

Row | SMILES | Degradation of substrate protein BCL-2 (substrate protein remaining %) (BCL-2) | IC50 [1] | IC50 [4] | IC50 [5] | IC50 [6] | IC50 [2] | inhibition at 0.01 µM [1] | inhibition at 0.5 µM [1] | inhibition at 0.01 µM [2] | inhibition at 0.5 µM [2] | inhibition at 0.01 µM [3] | inhibition at 0.5 µM [3] | Inhibition Rate at 10 nM (%) ([6]; Table IE3, CDK4/6 inhibitor-based, MV-4-11, 10 nM, 96 hours) | Inhibition Rate at 500 nM (%) ([6]; Table IE3, CDK4/6 inhibitor-based, MV-4-11, 500 nM, 96 hours) | inhibition at 0.01 µM ([7]; H292, 10 nM, read-out: Inhibition Rate at 10 nM (%)) | inhibition at 0.5 µM ([7]; H292, 500 nM, read-out: Inhibition Rate at 500 nM (%))
1 | CC1(C)CCC(c2ccc(Cl)cc2)=C(CN2CCN(c3ccc(C(=O)NS(=O)(=O)c4ccc(N[C@H](CCN5CC6CCC5CN6Cc5ccc6c(c5)C(=O)N(N5CCC(=O)NC5=O)C6=O)CSc5ccccc5)c(S(=O)(=O)C(F)(F)F)c4)cc3)CC2)C1 (stereo partly drawn) [GT-07815, 4-(4-((4′-chloro-4,4-dimethyl-3,4,5,6-tetrahydro-[1,1′-biphenyl]-2-yl)methyl)piperazin-1-yl)-N-((4-(((2R)-4-(5-((2-(2,4-dioxotetrahydropyrimidin-1(2H)-yl)-1,3-dioxoisoindolin-5-yl)methyl)-2,5-diazabicyclo[2.2.2]octan-2-yl)-1-(phenylthio)butan-2-yl)amino)-3-((trifluoromethyl)sulfonyl)phenyl)sulfonyl)benzamide] | A (0%≤substrate protein remaining %≤80%) | – | – | – | – | – | 5 to 10% | 80 to 100% | -5 to 0% | 50 to 60% | 15 to 20% | 30 to 40% | – | – | – | –
2 | CN(C)C(=O)c1cc2cnc(Nc3ccc(N4CCNCC4)cn3)nc2n1C1CCCC1 [Ribociclib, reference compound] | – | > 10000 nM | 5000 to 10000 nM | 1000 to 5000 nM | 5000 to 10000 nM | 1000 to 5000 nM | – | – | – | – | – | – | IEb2 (5% ≤ IEb2 < 10%) | IEb7 (30% ≤ IEb7 < 35%) | – | –
3 | Cc1nc2c(F)cc(-c3nc(Nc4ccc(N5CCN(Cc6ccc7c(c6)CN(N6CCC(=O)NC6=O)C7=O)CC5)cn4)ncc3F)cc2n1C(C)C [GT-06672, 1-(5-((4-(6-((5-fluoro-4-(4-fluoro-1-isopropyl-2-methyl-1H-benzo[d]imidazol-6-yl)pyrimidin-2-yl)amino)pyridin-3-yl)piperazin-1-yl)methyl)-1-oxoisoindolin-2-yl)dihydropyrimidine-2,4 (1H,3H)-dione] | – | – | 100 to 300 nM | 100 to 300 nM | 10 to 50 nM | 400 to 800 nM | – | – | – | – | – | – | – | – | – | –
4 | CC(=O)c1c(C)c2cnc(Nc3ccc(N4CCNCC4)cn3)nc2n(C2CCCC2)c1=O [Palbociclib, reference compound] | – | 1000 to 5000 nM | 1000 to 5000 nM | 1000 to 5000 nM | 300 to 400 nM | 1000 to 5000 nM | – | – | – | – | – | – | – | – | 10 to 15% | 25 to 30%

Second part, led by results:

Row | Degradation of substrate protein BCL-2 (substrate protein remaining %) (BCL-2) | IC50 [1] | IC50 [4] | IC50 [5] | IC50 [6] | IC50 [2] | SMILES | inhibition at 0.01 µM [1] | inhibition at 0.5 µM [1] | inhibition at 0.01 µM [2] | inhibition at 0.5 µM [2] | inhibition at 0.01 µM [3] | inhibition at 0.5 µM [3] | Inhibition Rate at 10 nM (%) ([6]; Table IE3, CDK4/6 inhibitor-based, MV-4-11, 10 nM, 96 hours) | Inhibition Rate at 500 nM (%) ([6]; Table IE3, CDK4/6 inhibitor-based, MV-4-11, 500 nM, 96 hours) | inhibition at 0.01 µM ([7]; H292, 10 nM, read-out: Inhibition Rate at 10 nM (%)) | inhibition at 0.5 µM ([7]; H292, 500 nM, read-out: Inhibition Rate at 500 nM (%))
5 | A (0%≤substrate protein remaining %≤80%) | – | – | – | – | – | CC1(C)CCC(c2ccc(Cl)cc2)=C(CN2CCN(c3ccc(C(=O)NS(=O)(=O)c4ccc(N[C@H](CCN5CC6CCC5CN6Cc5ccc6c(c5)CN(N5CCC(=O)NC5=O)C6=O)CSc5ccccc5)c(S(=O)(=O)C(F)(F)F)c4)cc3)CC2)C1 (stereo partly drawn) [GT-07811, 4-(4-((4′-chloro-4,4-dimethyl-3,4,5,6-tetrahydro-[1,1′-biphenyl]-2-yl)methyl)piperazin-1-yl)-N-((4-(((2R)-4-(5-((2-(2,4-dioxotetrahydropyrimidin-1(2H)-yl)-1-oxoisoindolin-5-yl)methyl)-2,5-diazabicyclo[2.2.2]octan-2-yl)-1-(phenylthio)butan-2-yl)amino)-3-((trifluoromethyl)sulfonyl)phenyl)sulfonyl)benzamide] | 40 to 50% | 80 to 100% | 5 to 10% | 80 to 100% | 15 to 20% | 40 to 50% | – | – | – | –
6 | A (0%≤substrate protein remaining %≤80%) | – | – | – | – | – | CC1(C)CCC(c2ccc(Cl)cc2)=C(CN2CCN(c3ccc(C(=O)NS(=O)(=O)c4ccc(N[C@H](CCN5C[C@H]6C[C@@H]5CN6Cc5ccc6c(c5)CN(N5CCC(=O)NC5=O)C6=O)CSc5ccccc5)c(S(=O)(=O)C(F)(F)F)c4)cc3)CC2)C1 [GT-07812, 4-(4-((4′-chloro-4,4-dimethyl-3,4,5,6-tetrahydro-[1,1′-biphenyl]-2-yl)methyl)piperazin-1-yl)-N-((4-(((R)-4-((1R,4R)-5-((2-(2,4-dioxotetrahydropyrimidin-1(2H)-yl)-1-oxoisoindolin-5-yl)methyl)-2,5-diazabicyclo[2.2.1]heptan-2-yl)-1-(phenylthio)butan-2-yl)amino)-3-((trifluoromethyl)sulfonyl)phenyl)sulfonyl)benzamide] | 50 to 60% | 80 to 100% | 20 to 30% | 80 to 100% | 30 to 40% | 50 to 60% | – | – | – | –
7 | A (0%≤substrate protein remaining %≤80%) | – | – | – | – | – | CC1(C)CCC(c2ccc(Cl)cc2)=C(CN2CCN(c3ccc(C(=O)NS(=O)(=O)c4ccc(N[C@H](CCN5C6CCC5CN(Cc5ccc7c(c5)CN(N5CCC(=O)NC5=O)C7=O)C6)CSc5ccccc5)c(S(=O)(=O)C(F)(F)F)c4)cc3)CC2)C1 [GT-07814, 4-(4-((4′-chloro-4,4-dimethyl-3,4,5,6-tetrahydro-[1,1′-biphenyl]-2-yl)methyl)piperazin-1-yl)-N-((4-(((2R)-4-(3-((2-(2,4-dioxotetrahydropyrimidin-1(2H)-yl)-1-oxoisoindolin-5-yl)methyl)-3,8-diazabicyclo[3.2.1]octan-8-yl)-1-(phenylthio)butan-2-yl)amino)-3-((trifluoromethyl)sulfonyl)phenyl)sulfonyl)benzamide] | 80 to 100% | 80 to 100% | 50 to 60% | 80 to 100% | 15 to 20% | 40 to 50% | – | – | – | –
